Data on 3 compounds can be found in ChEMBL document CHEMBL1147314, “A pentacyclic triterpene with anti-inflammatory and analgesic activity from the roots of Commiphora merkeri” (1989).

Structures are written as SMILES.

Experiment [1] relates to Rattus norvegicus. The experiment in a line: Antiinflammatory activity in rat assessed as inhibition of carrageenan-induced edema at 100 mg/kg. It counts as functional. Background: The carrageenan paw model is a standard test of acute inflammation.
Experiment [2] relates to Rattus norvegicus. The experiment in a line: Analgesic activity in rat assessed as inhibition of writhing at 100 mg/kg. It counts as functional. (In writhing tests, fewer writhes than in controls are read as antinociception.)

On to `CCCCC1C(=O)N(c2ccccc2)N(c2ccccc2)C1=O` [PHENYLBUTAZONE], for which the inhibition in vivo (commonly the relative decrease from the control value, in per cent) at 100 mg/kg in experiment [1] amounted to 64%.
As to `CC1(C)CC[C@]2(C)CC[C@]3(C)C(=CC[C@@H]4[C@@]5(C)C[C@@H](O)[C@H](O)[C@@](C)(CO)[C@@H]5CC[C@]43C)[C@@H]2C1`, the inhibition in vivo at 100 mg/kg in experiment [1] is 28%; in experiment [2], 37%.
Turning to `CC(=O)Oc1ccccc1C(=O)O` [ASPIRIN], in experiment [2], the inhibition in vivo at 100 mg/kg was found to be 85%.
